Reference: patent publication US20120270945A1, “METHOD FOR MODULATING CYTOKINE ACTIVITY” (SUCAMPO AG, priority 2011, published 2012)

How the values were obtained:
[1] = Incidence of esophagitis in patients who take NSAIDs (naproxen); type: in vivo, human; details: patients on 500 mg naproxen twice a day
Experimental: Patients who take NSAIDs were randomized to one of four treatment groups. All patients received 500 mg of naproxen twice a day. One group received placebo while the other three groups received 18, 36 or 54 mcg of Compound A, respectively, for 12 weeks. The incidence of esophagitis was 10.0%, 6.5% or 6.5% for the groups received 18, 36 or 54 mcg of Compound A, respectively, while it was 20.0% for the group received placebo.

IL-6 = IL-6 mRNA expression in intestinal tissue of DSS-induced ulcerative colitis rats (real-time PCR); type: in vivo, rat
Experimental: (§1) Male LEW/SsN rats were given free access to 3% dextran sulfate sodium (DSS) in drinking water to induce ulcerative colitis. (−)-7-{(2R,4aR,5R,/aR)-2-[(3S)-1,1-difluoro-3-methylpentyl]-2-hydroxy-6-oxooctahydrocyclopenta[b]pyran-5-yl}heptanoic acid (Compound A) was orally administered to the animals twice a day for 10 days. The same amount of the vehicle was administered to control animals. At the 10 days after start of 3% DSS drinking, animals were sacrificed and intestinal tissues were excised. The mRNA expressions of IL-12, IL-1beta, IL-6, and TNF-alpha in the intestinal tissues were measured by real-time polymerase chain reaction technique.
(§2) Each value is relative to the reference gene (GAPDH) level. Data are represented as mean (Arbitrary unit) from 3 to 4 animals.

IL-1beta = IL-1beta mRNA expression in intestinal tissue of DSS-induced ulcerative colitis rats (real-time PCR); type: in vivo, rat
Experimental: as §1, §2

IL-12 = IL-12 mRNA expression in intestinal tissue of DSS-induced ulcerative colitis rats (real-time PCR); type: in vivo, rat
Experimental: as §1, §2

TNF-alpha = TNF-alpha mRNA expression in intestinal tissue of DSS-induced ulcerative colitis rats (real-time PCR); type: in vivo, rat
Experimental: as §1, §2

SOCS-1 = SOCS-1 expression in colon of DSS-induced colitis model mice (real-time PCR); type: in vivo, mouse; details: C57/B6J mice, 2% DSS for 7 days, 10 μM solution orally once daily for 7 days, GAPDH as reference
Experimental: The experimental model used C57/B6J mice (7-8 weeks old). Colitis was induced by administration of 2% dextran sulfate sodium (DSS) in drinking water for 7 days. Ten (10) μM solution of Compound B ((−)-7-[(2R,4aR,5R,7aR)-2-(1,1-difluoropentyl)-2-hydroxy-6-oxooctahydrocyclopenta[b]pyran-5-yl]heptanoic acid) was administered orally once daily for 7 days from the day of starting DSS treatment. One day after last administration, animals were sacrificed and colons were excised. After extraction of mRNA from colon tissues, real-time PCR analysis of SOCS-1 was conducted using house-keeping gene GAPDH as a reference.

[2] = DSS-induced ulcerative colitis model rats, versus vehicle control
[3] = male LEW/SsN rats, 3% DSS drinking water, oral twice a day for 10 days, intestinal tissue, mean from 3 to 4 animals

## CC[C@H](C)CC(F)(F)[C@@]1(O)CC[C@H]2[C@@H](CC(=O)[C@@H]2CCCCCCC(=O)O)O1 [Compound A, (−)-7-{(2R,4aR,5R,/aR)-2-[(3S)-1,1-difluoro-3-methylpentyl]-2-hydroxy-6-oxooctahydrocyclopenta[b]pyran-5-yl}heptanoic acid]
[1]; 18 mcg for 12 weeks (placebo 20.0%)
  incidence of esophagitis: 10.0%
[1]; 36 mcg for 12 weeks (placebo 20.0%)
  incidence of esophagitis: 6.5%
[1]; 54 mcg for 12 weeks (placebo 20.0%)
  incidence of esophagitis: 6.5%
IL-6; [2]
  effect on expression of IL-6 increased by DSS (in words): reduced
IL-6; [3]
  expression of IL-6 (mRNA, relative to GAPDH): 49.25 Arbitrary unit
IL-1beta; [2]
  effect on expression of IL-1beta increased by DSS (in words): reduced
IL-1beta; [3]
  expression of IL-1beta (mRNA, relative to GAPDH): 54.83 Arbitrary unit
IL-12; [2]
  effect on expression of IL-12 increased by DSS (in words): reduced
IL-12; [3]
  expression of IL-12 (mRNA, relative to GAPDH): 0.99 Arbitrary unit
TNF-alpha; [2]
  effect on expression of TNF-alpha increased by DSS (in words): reduced
TNF-alpha; [3]
  expression of TNF-alpha (mRNA, relative to GAPDH): 4.68 Arbitrary unit

## CCCCC(F)(F)[C@@]1(O)CC[C@H]2[C@@H](CC(=O)[C@@H]2CCCCCCC(=O)O)O1 [Compound B, (−)-7-[(2R,4aR,5R,7aR)-2-(1,1-difluoropentyl)-2-hydroxy-6-oxooctahydrocyclopenta[b]pyran-5-yl]heptanoic acid]
SOCS-1
  effect on overexpression of SOCS-1 gene (in words): reduced
